Data from patent publication US20220194938A1, “NOVEL COMPOUNDS AND PHARMACEUTICAL COMPOSITIONS THEREOF FOR THE TREATMENT OF INFLAMMATORY DISORDERS” (GALAPAGOS NV, priority 2019, published 2022).

How the values were obtained:
human IRAK-4 = target: T1, human IRAK-4 (Homo sapiens, UniProt Q9NWZ3); test: Phosphorylation IC50 determination for human IRAK-4 (ADP-Glo kinase assay); conditions: human IRAK-4, RIP140 substrate, Km ATP; read-out: IRAK4 ADPglo biochemical assay IC50
T1 construct: purchased Carna Biosciences 09 145
T1 sequence (Q9NWZ3 1-460): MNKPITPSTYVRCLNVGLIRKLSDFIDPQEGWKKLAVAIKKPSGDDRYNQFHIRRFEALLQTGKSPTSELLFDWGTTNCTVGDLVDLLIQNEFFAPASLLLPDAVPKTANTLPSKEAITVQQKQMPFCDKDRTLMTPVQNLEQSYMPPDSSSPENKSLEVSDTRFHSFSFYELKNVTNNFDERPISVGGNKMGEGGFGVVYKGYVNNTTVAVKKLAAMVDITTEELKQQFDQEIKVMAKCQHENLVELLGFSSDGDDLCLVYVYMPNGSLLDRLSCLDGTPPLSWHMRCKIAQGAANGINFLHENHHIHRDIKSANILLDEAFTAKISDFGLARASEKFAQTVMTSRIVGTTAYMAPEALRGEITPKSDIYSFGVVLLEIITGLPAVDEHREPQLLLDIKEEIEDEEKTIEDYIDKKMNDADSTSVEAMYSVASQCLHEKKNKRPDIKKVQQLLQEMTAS
Protocol: 3.1. Phosphorylation IC50 Determination for Human IRAK-4
The phosphorylation of the substrate RIP140 (SEQ ID1) by IRAK4 at Km ATP was detected with the ADP-Glo Kinase Assay (Promega, Cat #V9103), a luminescent kinase assay which measures the ADP formed from a kinase reaction. (Zegzouti et al. 2009) In a second step the kinase reaction was terminated and all the remaining ATP was depleted. In a final step the ADP was converted into ATP and this newly synthesized ATP was measured by using a luciferase/luciferin reaction with a luminescent reader. The luminescent signal positively correlated with kinase activity, in particular kinase inhibition giving a decrease of the luminescent signal.
For the semi-automated assay, the positive control (100% inhibition) was prepared by diluting 10 mM staurosporine stock mixture (20 μL) in water (3.8 mL) and DMSO (180 μL), thus resulting in a […] staurosporine solution at 1% DMSO (final concentration after further dilution in the kinase reaction).
For the automated assay, no pre-dilution of the 10 mM staurosporine stock was made. 10 mM staurosporine was spotted directly in the assay plate using acoustic dispensing and complemented with DMSO to result in a similar final concentration as mentioned above.
For the semi-automated assay, the negative control (0% inhibition) was prepared by mixing water (3.8 mL) and DMSO (200 μL) resulting in a final concentration of 1% DMSO after further dilution in the kinase reaction. For the automated assay no pre-dilution of DMSO was done. 100% DMSO was spotted directly on the assay plate.
The assay buffer solution was prepared at a concentration corresponding to 5 fold the final (most diluted) assay concentration by mixing a solution of 125 mM TRIS pH 7.5+0.05% Triton X-100+2.5 mM EGTA (5.27 mL) with 1M mgCl2 (72 μL), 1M DTT (57.6 μL), and 200 mM MnCl2 (360 μL).
For example, for the semi-automated method, the enzyme-substrate mixture was prepared by mixing water (3999 μL), assay buffer solution (1380 μL), 1 mM RIP140 (138 μL—SEQ ID1), and 200 ng/mL IRAK 4 (3.45 μL Carna Biosciences, 09 145).
For semi-automated method, the ATP mixture was prepared at a concentration corresponding to 2.5 fold the final (most diluted) assay concentration of the semi-automated method and 1.5 fold the final (most diluted) assay concentration of the automated method. For example, for the semi-automated method, the ATP mixture was prepared by mixing water (4126 μL), assay buffer solution (1380 μL), and 10 mM ATP (13.80 μL).
The assay was performed either in a semi-automated or fully automated manner. The assay volume and the incubation time of the ADP detection were different accordingly the method used.
3.1.3.1. Semi-Automated Assay
The compounds were prepared as a serial dilution of 10 point dose responses with 1/5 dilution steps in 100% DMSO starting from 2 mM highest concentration, diluted 1/20 in water. 1 μL was transferred dry to the assay plates.
On each assay plate 32 wells of each control (positive & negative) were added, followed by 2 μL enzyme-substrate mixture.
The reaction was started by adding 2 μL diluted ATP (final concentration Km ATP) on the assay plates. Plates were centrifuged for a few seconds at 1000 rpm followed by an incubation at r.t. for 120 min.
The reactions were stopped and the unconsumed ATP was depleted by adding 5 μL ADP-glo Reagent (Promega, Cat #V9103) to the reaction. The plates were quickly centrifuged at 1000 rpm and incubated at r.t. for 40 min corresponding to full ATP depletion.
The ADP was converted back to ATP and luciferase and luciferin were introduced to detect ATP by adding 10 μL kinase detection reagent (Promega, Cat #V9103) to the reaction. The plates were centrifuged for a few seconds at 1000 rpm and incubated at r.t. for a further 30 min.
Luminescent read out was performed on an Envision luminescent reader (Perkin Elmer). […]

[1] = tested on: pooled cryopreserved hepatocytes; test: Metabolic stability in hepatocytes (human); type: in vitro ADME; conditions: 1 μM test compound
Protocol: (§1) 4.6. Metabolic Stability in Hepatocytes
(§2) The aim of this assay is to determine the metabolic stability of the compound in hepatocytes (cryopreserved) of different species. Low hepatocyte stability may result in the formation of unwanted metabolites, high clearance, and therefore is not desirable.
(§3) The decrease in parent was assessed by measuring the percentage remaining by LC-MS/MS analysis.
(§4) A 10 mM stock solution of test compound in DMSO was first diluted in DMSO to 3 mM, and then in modified Krebs-Henseleit buffer (Sigma, K3753) to 5 μM. This compound dilution was added to a suspension of pooled cryopreserved hepatocytes (BioreclamationIVT) at 37° C. under gentle shaking.
(§5) Final reaction conditions were: 1 μM of test compound, 0.03% DMSO, 0.5 million viable hepatocytes/mL, and 75 μL incubation volume.
(§6) Testosterone (1 μM) and 7-hydroxycoumarin (1 μM) were used, respectively as phase I and phase II metabolic reaction controls.
(§7) After 0, 10, 20, 45, 90, 120 and 180 min of incubation, the reaction was terminated with 225 μL of MeCN:MeOH (2:1) containing 100 ng/mL of diclofenac as analytical internal standard. Samples were mixed, centrifuged and the supernatant analyzed by LC-MS/MS.
(§8) The instrument responses (ratios of test compound and internal standard peak areas) were referenced to the zero time point samples (considered as 100%) in order to determine the percentage of compound remaining.
(§9) Plots of percentage compound remaining are used to determine the intrinsic clearance in the hepatocyte incubations using the following equations:
(§10) Scaled Clint[L/h/kg]=Clint[μL/min/10^6 cells]*#(10^6) cells/g liver*60*(1/10^6) Scaled Clint unbound [L/h/kg]=Clint [L/h/kg]/Fu,inc where: fu,inc equals hepatocyte binding, derived from microsomal binding (fu,mic) by following equation: […]

[2] = tested on: pooled cryopreserved hepatocytes; test: Metabolic stability in hepatocytes (mouse); type: in vitro ADME; conditions: 1 μM test compound
Protocol: as §1, §2, §3, §4, §5, §6, §7, §8, §9, §10

hERG channel = target: T2, hERG channel (Homo sapiens, UniProt Q12809); test: hERG channel test - manual patch clamp assay; type: cell-based; conditions: 10 μM, HEK293 cells stably transfected with hERG, tail current
T2 construct: host or cells: HEK293
T2 sequence (Q12809 whole entry): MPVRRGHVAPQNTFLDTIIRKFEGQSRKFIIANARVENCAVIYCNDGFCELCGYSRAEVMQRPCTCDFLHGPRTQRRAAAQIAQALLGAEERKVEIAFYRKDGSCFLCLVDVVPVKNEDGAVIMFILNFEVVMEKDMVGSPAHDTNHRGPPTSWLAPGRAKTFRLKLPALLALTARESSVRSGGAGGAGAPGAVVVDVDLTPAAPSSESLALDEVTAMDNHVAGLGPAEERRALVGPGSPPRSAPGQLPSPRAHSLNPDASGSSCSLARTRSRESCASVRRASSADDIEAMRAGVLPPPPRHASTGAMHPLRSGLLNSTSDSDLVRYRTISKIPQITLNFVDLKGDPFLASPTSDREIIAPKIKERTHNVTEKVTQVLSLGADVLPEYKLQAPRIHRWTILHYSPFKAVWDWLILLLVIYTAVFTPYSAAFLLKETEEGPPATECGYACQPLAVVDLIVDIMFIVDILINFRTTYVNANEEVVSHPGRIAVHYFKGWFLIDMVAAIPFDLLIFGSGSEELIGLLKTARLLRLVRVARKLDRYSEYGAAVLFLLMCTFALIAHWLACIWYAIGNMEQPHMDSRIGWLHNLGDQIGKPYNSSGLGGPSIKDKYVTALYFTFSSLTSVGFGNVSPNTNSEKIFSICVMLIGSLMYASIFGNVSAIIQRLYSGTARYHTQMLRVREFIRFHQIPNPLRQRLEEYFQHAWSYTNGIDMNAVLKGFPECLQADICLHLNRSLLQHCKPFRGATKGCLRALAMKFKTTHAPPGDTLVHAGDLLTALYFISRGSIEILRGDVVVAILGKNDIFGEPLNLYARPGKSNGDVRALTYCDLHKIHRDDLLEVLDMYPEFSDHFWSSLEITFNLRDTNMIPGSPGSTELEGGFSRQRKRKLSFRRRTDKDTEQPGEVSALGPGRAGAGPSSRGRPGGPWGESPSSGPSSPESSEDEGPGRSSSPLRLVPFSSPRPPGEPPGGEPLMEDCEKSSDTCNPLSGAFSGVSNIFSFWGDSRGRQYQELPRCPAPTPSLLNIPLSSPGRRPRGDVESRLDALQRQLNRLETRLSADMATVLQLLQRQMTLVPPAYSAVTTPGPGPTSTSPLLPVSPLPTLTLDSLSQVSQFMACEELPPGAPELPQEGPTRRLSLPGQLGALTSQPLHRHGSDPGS
Protocol: 4.7 hERG Channel Test—Manual Patch Clamp Assay
The aim of this assay is to determine the in-vitro effects of a test compound on hERG current ([…]) expressed in Human Embryonic Kidney (HEK) cells (evaluation of the blocking profile of test substance on the IKr-like potassium current mediated by hERG channel stably transfected in a human cell line), which is linked to cardiac safety.
The test substance is dissolved in pure dimethylsulfoxide (DMSO) by cold stirring to give a stock solution concentrated 333-fold as compared with the highest concentration to be tested. This stock solution is used to prepare the other stock solutions in DMSO. Each stock solution is used to prepare the solutions containing the final concentrations tested by dilution in extracellular solution (0.1, 1, 10 and 100 μM). Final concentration of DMSO should not not exceed 0.3%.
All formulations are prepared in glass containers.
If a slight opalescence persists at the highest concentration, a 50 μM (instead of 100 μM) concentration is tested.
DMSO diluted in extracellular solution (at the different concentrations used in the final test substance solutions) is used as vehicle.
The extracellular solution is constituted as follows (mM): K-gluconate: 4 mM/Na-gluconate: 145 mM/Mg-gluconate: 2 mM/Ca-gluconate: 3.5 mM/HEPES: 5 mM/glucose: 5 mM/mannitol: 20 mM. The pH is adjusted with NaOH to 7.40±0.05.
Human embryonic kidney (HEK293) cells are stably transfected with the hERG clone (Creacell) and are maintained at 37° C. in a 5% CO2/95% air incubator. Cells used for the study are transferred to an experimental chamber of approximately 2 mL which is maintained at a temperature of 35±0.5° C. by a thermoelectric device (Harvard Apparatus: Type TC-344B) and mounted on the platform of an inverted microscope (Olympus: Type IX-51 or Leica DMI3000 B). Cells are continuously superfused with Tyrode's solution constituted as follows (mM): NaCl: 145/KCl: 4/HEPES: 5/glucose: 5/CaCl2:1/MgCl2: 1.
Ionic currents from hERG-transfected cells are measured using the whole cell configuration of the patch clamp technique. Glass pipettes are pulled from borosilicate glass by a vertical puller (Sutter Instruments: Type P30). Pipette tip resistance is approximately 1.5 to 3.5 MΩ when filled with internal solution constituted as follows (mM): K-gluconate: 145/Mg-gluconate: 1/EGTA: 2/HEPES:5/K2ATP: 2.
The pipettes are connected to the input stage of a patch-clamp amplifier (Axon Instruments: Multiclamp 700B-1). Stimulation, data recording and analysis are performed using specialized Axon Instruments software (pClamp 9.2.0. or pClamp 10.3.0.2).
After rupture of the cell membrane (entering whole-cell mode), cells are stimulated every 10 seconds using the following protocol: 500 ms pulse to +10 mV from a holding potential of −80 mV followed by a 500 ms pulse to −40 mV during which tail current is measured.
Once the current under control conditions is stable, recordings are taken before (control) and after addition of the test substance. The effect of the test substance on tail current is monitored continuously until steady-state is reached. The peak tail current amplitude is averaged for 3 stimuli.
The following parameters are measured: • Cell capacitance (pF). • Peak tail current amplitude (pA).
Peak tail current measurements are normalized using the cell capacitance as an index of cell surface.
The cells will be considered as valid if cell capacitance <80 pF, access resistance <20 MΩ and holding current >−200 pA.
Results are expressed as absolute values and as percentage change from control (percentage of tail current inhibition).
The test substance is studied at 4 ascending concentrations on 3 hERG-transfected cells.
The concentration of test substance inducing 50% of inhibition (IC50) of tail current is determined, if possible, from each individual concentration-response curve. The equation is of the following form: […]

Structure (SMILES)	IC50 (human IRAK-4)	Human (Perc. remaining at 90 min) [1]	Mouse (Perc. remaining at 90 min) [2]	hERG Manual Patch Clamp Single dose PIN (10 μM) (hERG channel)
CC(C)(O)CCc1cn2cc(NC(=O)c3cccc(C(F)(F)F)n3)c(C(=O)N3CCC3)cc2n1 [Compound 28, N-[7-(azetidine-1-carbonyl)-2-(3-hydroxy-3-methyl-butyl)imidazo[1,2-a]pyridin-6-yl]-6-(trifluoromethyl)pyridine-2-carboxamide]	10 to 50 nM	93.5%	96.25%	
CC(C)(O)CCc1cn2cc(NC(=O)c3cccc(C(F)(F)F)n3)c(C(=O)NCCO)cc2n1 [Compound 40, 2-(3-hydroxy-3-methylbutyl)-N-(2-hydroxyethyl)-6-(6-(trifluoromethyl)picolinamido)imidazo[1,2-a]pyridine-7-carboxamide]	0.1 to 5 nM	94.65%	94.55%	
CC(C)(O)CCc1cn2cc(NC(=O)c3cccc(C(F)(F)F)n3)c(C(=O)NCC(F)(F)F)cc2n1 [Compound 41, 2-(3-hydroxy-3-methylbutyl)-N-(2,2,2-trifluoroethyl)-6-(6-(trifluoromethyl)picolinamido)imidazo[1,2-a]pyridine-7-carboxamide]	0.1 to 5 nM			−17%

Further lines, with some results ahead:

IC50 (human IRAK-4)	Human (Perc. remaining at 90 min) [1]	Mouse (Perc. remaining at 90 min) [2]	Structure (SMILES)	hERG Manual Patch Clamp Single dose PIN (10 μM) (hERG channel)
10 to 50 nM	95.6%	108.1%	CN(C)C(=O)c1cc2nc(CCC(C)(C)O)cn2cc1NC(=O)c1cccc(C(F)(F)F)n1 [Compound 27, 2-(3-hydroxy-3-methyl-butyl)-N,N-dimethyl-6-[[6-(trifluoromethyl)pyridine-2-carbonyl]amino]imidazo[1,2-a]pyridine-7-carboxamide]	
10 to 50 nM	98.85%	95.2%	CCOc1cc2nc(CCC(C)(C)O)cn2cc1NC(=O)c1cccn(C)c1=O [Compound 29, N-[7-ethoxy-2-(3-hydroxy-3-methyl-butyl)imidazo[1,2-a]pyridin-6-yl]-1-methyl-2-oxo-pyridine-3-carboxamide]	
5 to 10 nM	49.8%	6.59%	COc1cc2nc(CCC(C)(C)O)cn2cc1NC(=O)c1cccc(Cl)n1 [Compound 34, 6-chloro-N-[2-(3-hydroxy-3-methylbutyl)-7-methoxyimidazo[1,2-a]pyridin-6-yl]pyridine-2-carboxamide]	
